Data as given in a melting point compilation (Tetko et al.).

## Cc1sc(N)nc1-c1ccccc1
  melting point: 110 °C

## COc1ccc(C(F)(F)F)cc1N
  melting point: 58 °C

## Nn1c(Cc2ccccc2)nc2ccccc2c1=O
  melting point: 111 °C

## Cc1ccc(N=C=Nc2ccc(C)cc2)cc1
  melting point: 58.5 °C

## CC(C)(C)OOC(C)(C)C
  melting point: -30 °C

## Cc1c(C(=O)O)nnn1Cc1ccc(Br)cc1
  melting point: 192 to 193 °C

## O=C(C1=NOC2C(=O)N(c3ccc(F)cc3)C(=O)C12)c1ccccc1 (stereo not given)
  melting point: 156 °C

## O=C=Nc1ccc2c(c1)OCCOCCOCCOCCOCCO2
  melting point: 61 to 63 °C

## CSC(S)=Nc1ccccc1C
  melting point: 151 to 153 °C

## COC(=O)C(C)(C)C1=CCC2(C)C(CCC3C4CCC(O)C4(C)CCC32)C1 (stereo not given)
  melting point: 150 °C

## N#Cc1c(N)cc(N)nc1Br
  melting point: 257 °C

## CN(C)c1ccc(N)c([N+](=O)[O-])c1
  melting point: 119 to 124 °C

## NC(CN(Cc1ccccc1)c1ccccc1)=NO
  melting point: 107 °C

## NC(Cc1ccccc1)=NO
  melting point: 66 to 67 °C

## Cc1cc(C)cc(C(=O)N(NC(=O)c2ccccc2)C(C)(C)C)c1
  melting point: 206 °C

## COc1ccc(C2CNC(=O)C2)cc1OC1CCCC1 (stereo not given)
  melting point: 127 to 133 °C

## Cn1c(=O)c(C2=NNC(=O)C2=CC=Cc2ccccc2)c(O)c2ccccc21
  melting point: 238 °C

## Cc1cccc2cc3ccc4ccccc4c3cc12
  melting point: 118 °C

## CCOC(=O)CCC(NP(=O)(OC)C(C)NC(=O)CCCCN1C(=O)c2ccccc2C1=O)C(=O)OCC (stereo not given)
  melting point: 79 to 82 °C

## COC(=O)c1ccc(C=CC(=O)c2ccccc2)cc1
  melting point: 119 to 120 °C

## CC[Si](Cl)(Cl)Cl
  melting point: -106 °C

## Oc1cccc(Cl)n1
  melting point: 130 °C

## CC(=O)c1ccc(N2CCOCC2)cc1
  melting point: 94 to 98 °C

## Cc1ccc(C(C=O)C=O)cc1
  melting point: 128 to 134 °C

## O=C(O)C=CCCCCCCCCC(=O)O
  melting point: 166 °C

## CCC(C)(S(=O)(=O)CC)S(=O)(=O)CC
  melting point: 76 °C

## Cn1ccc(-c2ccc(C(=O)Oc3c(F)c(F)c(F)c(F)c3F)cc2)n1
  melting point: 122 to 124 °C

## CC(=O)C(=NNc1ccc(C(=O)O)cc1)C(C)=O
  melting point: 215 °C

## O=C1COc2cccnc2N1
  melting point: 206 °C

## O=C(Cc1ccccc1)c1ccc2c3c(cccc13)CC2
  melting point: 114 °C

## O=[N+]([O-])c1ccc(O)c([N+](=O)[O-])c1
  melting point: 116 °C

## O=C(CBr)OCc1ccc([N+](=O)[O-])cc1
  melting point: 50 °C

## CSc1nc2[nH]c(=S)n(Cc3ccccc3)c(=O)c2n1C
  melting point: 231 to 233 °C

## CCCC(C)CCC
  melting point: -121 °C

## O=C(OCC1(COC(=O)c2cccnc2)CCCC(COC(=O)c2cccnc2)(COC(=O)c2cccnc2)C1O)c1cccnc1
  melting point: 178 °C

## CC(C)n1cc(C#N)c(=O)[nH]c1=O
  melting point: 265 to 268 °C

## CC1(O)Cc2ccccc21 (stereo not given)
  melting point: 78 °C

## CNCC(O)c1ccc(O)c(O)c1 (stereo not given)
  melting point: 218 °C

## CCOC(=O)C(C/C=C1\OC(=O)C(OC)=C1OC)S(=O)(=O)c1ccccc1 (stereo not given)
  melting point: 99 to 101 °C

## Clc1cccc2cccnc12
  melting point: -20 °C

## CC(C)COC(=O)C(C)Oc1ccc(Oc2ccc(Cl)cc2)cc1 (stereo not given)
  melting point: 39.5 °C

## NC(=NO)C(N)=NO
  melting point: 200 to 204 °C

## CN1CCC(CCCC2CCN(C)CC2)CC1
  melting point: 13.7 °C

## CCCCc1ccc(NC(=O)Oc2ccc(OC)cc2)cc1
  melting point: 143 °C

## O=C(O)CF
  melting point: 35.2 °C

## CC1(C2CCC3C4CCC5CC(O)CCC5(C)C4CCC32C)OCCO1 (stereo not given)
  melting point: 174 °C

## FC(F)(Cl)CCl
  melting point: -101 °C

## CCCN(CCC)c1c([N+](=O)[O-])cc(C(F)(F)F)c(N)c1[N+](=O)[O-]
  melting point: 124 °C

## C=CCOC(=O)C=CC(=O)OCC=C
  melting point: -47 °C

## CC(C)(C)NCC(O)c1ccc(O)c(CO)c1 (stereo not given)
  melting point: 154 °C

## CCOC(=O)c1nnn2c3ccccc3c(=O)n(C)c12
  melting point: 149 to 150 °C

## CC1(C)OC(=O)C(=NNc2ccccc2[N+](=O)[O-])C(=O)O1
  melting point: 165 °C

## Fc1ccc(-c2cc3ccccc3[nH]2)cc1
  melting point: 190 to 192 °C

## COc1ccccc1-c1nnc2n1CN(c1ccccc1C)CS2
  melting point: 239 to 240 °C

## Brc1ccc2[nH]cnc2c1
  melting point: 130 to 131 °C

## CON=C(c1cc2ccccc2o1)c1cc2ccccc2o1
  melting point: 131 to 132 °C

## O=Cc1ccc(Cl)cc1F
  melting point: 59 °C

## OC1CCCCCCCCCCCCCC1
  melting point: 80.5 °C

## CCCc1c(O)ccc(C(C)=O)c1N
  melting point: 95 to 97 °C

## Ic1ccc(-c2ccno2)cc1
  melting point: 139 to 140 °C

## COC(=O)c1ccsc1N
  melting point: 79 °C

## Cc1ccc(S(=O)(=O)n2ccnc2)cc1
  melting point: 75 to 80 °C

## O=C(O)c1cscc1C(=O)O
  melting point: 227 to 231 °C

## CNC(=O)C(F)(F)F
  melting point: 51 °C

## SCCCCS
  melting point: -53.9 °C

## FC(F)(F)C(F)(F)C(F)(F)C(F)(F)C(F)(F)C(F)(F)C(F)(F)C(F)(F)I
  melting point: 37 °C

## Cc1ccc(C(c2ccc(C)o2)c2ccccc2C#N)o1
  melting point: 87 °C

## CC/C(=N/NC(N)=O)C1=CC2(C)CCC1C2(C)C (stereo not given)
  melting point: 196 to 197 °C

## Oc1c(Cl)c(Cl)cc(Cl)c1Cl
  melting point: 115 °C

## FC1(F)C(F)(F)C(F)(Cl)C1(F)Cl (stereo not given)
  melting point: -15 °C

## CCOP(=O)(Cc1ccc(N)cc1)OCC
  melting point: 93 °C

## N#CCc1cccc(I)c1
  melting point: 34 °C

## C1=CC2=CC=Cc3c(c(c4cccc5cccc3c54)=C1)C2
  melting point: 171 °C

## COc1cccc(OCc2ccccc2)c1C#N
  melting point: 70 to 72 °C

## Cc1c(CN2CCOC(c3ccccc3)C2C)c(=O)n(-c2ccccc2)n1C (stereo not given)
  melting point: 149 °C

## Cc1cc(C(N)=S)no1
  melting point: 169 to 172 °C

## COC(=O)CC#N
  melting point: -13 °C

## COC(=O)C1(S(=O)(=O)c2ccc(C)cc2)CCCCC1
  melting point: 146 °C

## Nc1csc2nccnc12
  melting point: 88 to 89 °C

## O=C(Oc1cccc2cccnc12)c1ccccc1
  melting point: 119 °C

## CC(=O)Nc1cccc(N=[N+]([O-])c2cccc(NC(C)=O)c2)c1
  melting point: 254 °C

## COCCCl
  melting point: -55 °C

## Clc1cc2c(c(Cl)c1Cl)Oc1c(Cl)c(Cl)c(Cl)c(Cl)c1O2
  melting point: 264 °C

## COC(=O)C1=C(C)NC(C)=C(C(=O)OC)C1c1cccc(OC)c1O
  melting point: 191 °C

## N#Cc1ccc(O)c(Br)c1
  melting point: 158 °C

## O=c1oc2c(o1)=C(c1ccccc1)S(=O)(=O)C=2c1ccccc1
  melting point: 227 °C

## COc1cc(O)c2c(=O)c(O)c(-c3ccc(O)c(O)c3)oc2c1
  melting point: 295 °C

## O=c1c(C2CC(c3ccc(OCc4ccc(C(F)(F)F)cc4)cc3)Cc3ccccc32)c(O)oc2ccccc12 (stereo not given)
  melting point: 92.5 °C

## O=C(O)Cc1cccc(F)c1F
  melting point: 118 °C

## O=CC(Br)=C(Br)C(=O)O
  melting point: 123 °C

## O=C(C=Cc1ccc(F)cc1)c1ccccc1
  melting point: 84 to 88 °C

## N#CCC(=O)OCc1ccccc1
  melting point: 28 °C

## Cc1sc(-c2ccncc2)nc1-c1ccccc1
  melting point: 84 °C

## CC1Cc2c(Cl)cc(C(=O)NC(Cc3ccccc3)C(=O)O)c(O)c2C(=O)O1 (stereo not given)
  melting point: 169 °C

## CCCOc1ccc([N+](=O)[O-])cc1NC(C)=O
  melting point: 102 °C

## CC(Oc1ccc(Cl)cc1Cl)C(=O)O (stereo not given)
  melting point: 122 °C

## COc1cc(O)cc(O)c1
  melting point: 80.3 °C

## FC(F)(F)c1ccc(Cl)c(Br)c1
  melting point: -23 to -22 °C

## FC(F)(F)C1(F)C(F)(F)C(F)(F)C(F)(F)C(F)(F)C1(F)F
  melting point: -37 °C

## CCOC(=O)C(CC)c1ccc(C)cc1 (stereo not given)
  melting point: 130 °C

## O=C1CCC(c2ccccc2)c2ccccc21 (stereo not given)
  melting point: 73 to 76 °C

## CC12CC3CC(C)(C1)CC(C(=O)O)(C3)C2
  melting point: 101 °C

## O=[N+]([O-])/C(=C/c1ccccc1[N+](=O)[O-])c1ccccc1
  melting point: 107 °C

## CC(=NO)c1ccc(Cl)cc1Cl
  melting point: 148 to 151 °C

## CCOC(=O)c1cnc2c(c(C)nn2C)c1Cl
  melting point: 87 to 90 °C

## O=C1CC[C@H](C(=O)O)O1
  melting point: 69 to 72 °C

## Cc1ccc(-c2ccc(C=C3N=C(c4ccccc4)OC3=O)o2)cc1
  melting point: 149 to 150 °C

## COC(=O)CC(=O)c1ccc(C(=O)OC)cc1
  melting point: 81 to 86 °C

## COc1cccc(OC)c1N=C=O
  melting point: 45 to 47 °C

## CN1CCN(C2=Nc3ccccc3Oc3ccc(Cl)cc32)CC1
  melting point: 110 °C

## Cc1nc(-c2ccccc2)c(CO)s1
  melting point: 143 to 147 °C

## COc1ccc2[nH]c3c(c2c1)CCNC3C (stereo not given)
  melting point: 150 °C

## CCN(CC)c1nc(C)cc(OP(=S)(OC)OC)n1
  melting point: 21 °C

## O=C(Nc1ccccc1)N(C(=O)C1Cc2ccccc21)c1ccccc1 (stereo not given)
  melting point: 158 °C

## O=c1[nH]c2ccccc2n1-c1ccccc1
  melting point: 207 °C

## Clc1cc(Cl)c2c(oc3c(Cl)cccc32)c1Cl
  melting point: 177 °C

## O=C(O)C1CCCN1 (stereo not given)
  melting point: 228 to 233 °C

## O=C(O)CCC(=O)CCC(=O)O
  melting point: 142 to 144 °C

## N#Cc1ccc(NN)c(Cl)c1
  melting point: 127 to 128 °C

## CC(=O)Nc1cccc(N)c1C(=O)O
  melting point: 184 °C

## O=C1CCCN1c1ccccc1
  melting point: 66 °C

## Oc1c(I)cc(I)c2cccnc12
  melting point: 210 °C

## COC1OC(COC(=O)C(C)(C)C)C(O)C(OC(=O)C(C)(C)C)C1O (stereo not given)
  melting point: 89.8 °C

## CC=C(c1ccccc1)c1ccccc1
  melting point: 49 °C

## FC(F)(F)C(F)(F)C(F)(F)C(F)(F)C(F)(F)I
  melting point: -50 °C

## CC(=O)OC1CCC(C(C)(C)C)CC1 (stereo not given)
  melting point: -50 °C

## Cn1c(-c2ccc(Cl)cc2)cnc1S
  melting point: 244 to 247 °C

## CC(=O)c1ccccc1C(C)=O
  melting point: 40 °C

## Cc1ccc(C2C(C#N)=C(N)Oc3[nH]nc(C(F)(F)F)c32)cc1 (stereo not given)
  melting point: 185 °C

## CC(C)(C)c1cc(N=Nc2cc(C(C)(C)C)cc(C(C)(C)C)c2O)c(O)c(C(C)(C)C)c1
  melting point: 246 to 247 °C
